Earlier results in patent US20030232875A1, “Bicyclic pyrrolyl amides as glucogen phosphorylase inhibitors” (priority 2000, published 2003).

How the values were obtained:
conscious dogs = settings: following a glucagon challenge
db/db and ob/ob mice = db/db and ob/ob mice following treatment
hepatocytes = settings: in hepatocytes

SMILES | arterial plasma glucose levels (conscious dogs) | hepatic glucose output (conscious dogs) | plasma glucose concentration (db/db and ob/ob mice) | glucagon stimulated glycogenolysis (hepatocytes) | glucose output (hepatocytes)
CCN1C(C)=C(C(=O)OC(C)C)C(c2ccccc2Cl)C2=C1COC2=O (centres unmarked) [Bay R 3401] | reduced significantly | reduced significantly |  |  | 
CN(C)C(=O)[C@H](O)[C@H](Cc1ccccc1)NC(=O)c1cc2cc(Cl)ccc2[nH]1 [CP91149] |  |  | reduced, in a dose related manner | reduce | reduce
O=C(N[C@@H](Cc1ccc(F)cc1)C(=O)N1CCC(O)CC1)c1cc2cc(Cl)ccc2[nH]1 [CP320626] |  |  | reduced, in a dose related manner | reduce | reduce
